Molecules are shown by their SMILES. Several values for one entry are separate records, joined by “and”; a condition that tells them apart may be missing. Equal entries are not always repeated. Where two headings read alike, the source gives them in different places.

A short description of the data set: Open-label, three-way, sequential, cross-over pharmacokinetic interaction study, plasma, non-compartmental analysis. Type of data set: in vivo, human (healthy Thai adults). The note with it: for Tmax / AUC(0-t) / Cmax / AUC0–12h / AUC(0-inf) / Vd/F / half-life: plasma; for Tmax / AUC(0-t) / Cmax / AUC0–12h / AUC(0-inf) / Vd/F / half-life / CL/F: median (95 % CI); for Vd/F: read-out: Vz/F; for half-life: read-out: t1/2z (converted); for t1/2z GMR (90 % CI): geometric mean ratio. The procedure:
This was an open-label, three-way, sequential, cross-over, pharmacokinetic study in healthy adult volunteers. […] Written informed consent for study participation was obtained from each subject before study. […] Consenting adults were screened for eligibility and a physical examination, electrocardiogram (ECG), and laboratory safety tests (haematology, biochemistry, urinalysis, and pregnancy status) were performed. Figure 1 summarizes the study design. The pharmacokinetic sampling was performed sequentially on three occasions. […] Ltd., China). Mefloquine doses were given as three tablets on Day 1 and two tablets on Day 2 (250 mg mefloquine per tablet, manufactured by Atlantic Pharmaceutical Ltd., China). There was a 2-months wash-out period between Period 1 and Period 2. Period 2: subjects received oral doses of LPV/r (400/100 mg), twice daily, for 14 days (27 doses). There was no washout between Period 2 and Period 3. […] Immediately after collection, all blood samples were centrifuged (1200×g, 10 min) and the plasma samples were stored at -80 °C until analysis. […] University. […] An Agilent 1260 LC system (Agilent Technologies, CA, USA) coupled with an API 5000 triple quadrupole mass spectrometer (Applied Biosystems/MDS SCIEX, Foster City, USA), with a TurboVTM ionization source (TIS) interface operated in the positive ion mode, was used for the multiple reaction monitoring LC-MS/MS analysis. […] Nitrogen gas was supplied from an AB-3G (Peak Scientific, Inchinnan, UK). […] Chromatographic separation was performed using an […] XDB C18 column (5 μm, 4.6 mm × 150 mm; Thermo Fisher Scientific, MA, USA) protected with an Eclipse XDB-C8 guard column (Thermo Electron Corporation, MA, USA). The gradient mobile phase consisted of a mixture of 10 mM ammonium acetate with 0.1 % glacial acetic acid and acetonitrile running at a flow rate of 0.7 mL/min. Total run time was 12 min. […] Measurement of plasma concentrations of mefloquine was performed using high performance liquid chromatography (HPLC) according to the method of Karbwang et al. with modifications. Chromatographic separation was performed on a Hypersil ODS column (5 μm, 4.6 mm × 250 mm; Thermo Fisher Scientific, MA, USA) protected with an Eclipse XDB-C8 guard column (Thermo Electron Corporation, MA, USA). […] The UV detector was set at the wavelength of 220 nm. […] This laboratory participates in the NIAID Clinical Pharmacology Quality Assurance Programme Proficiency Testing. Pharmacokinetic parameters were determined using a non-compartmental analysis using WinNonLin software (version 6.3, […], USA). […] The Cmax (maximum concentration); tmax (time of maximum concentration) were determined by direct inspection of the plasma concentration-time data. […] The extrapolated AUC from the last sampling time to infinity was estimated from Ct/elimination rate constant (lz). lz was calculated from at least five concentration-time points of elimination phase. Apparent oral clearance (CL/F) was calculated as dose/AUC0-∞. Volume of distribution (Vz/F) was calculated as CL/F/lz, and the terminal half-life (t1/2z) was calculated as 0.693/lz. […] Statistical analysis of the data was performed using SPSS version 16.0 (Gorichem, The Netherlands). Pharmacokinetic parameters are presented as median and 95 % confidence intervals (95 % CI). […] Comparison of the frequency of subjects with adverse events between the two groups was performed using a Chi-square test. Statistical significance level was set at a = 0.05 for all tests.

The mark [1] stands for this setting: both sexes, human, oral, 3-day artesunate-mefloquine with LPV/r 400/100 mg twice a day (Period 3), read-out: tmax.
Setting [2] is: both sexes, human, oral, 3-day artesunate-mefloquine with LPV/r (Period 3), read-out: Cmax.
[3] abbreviates: both sexes, human, po, 3-day artesunate-mefloquine alone (Period 1), oral, read-out: Cmax.
Where [4] appears, read: both sexes, human, 3-day artesunate-mefloquine alone (Period 1), oral, read-out: tmax.
Setting [5] is: in the presence of LPV/r vs alone.
[6] abbreviates: LPV/r 400/100 mg twice daily alone (Period 2).
Where [7] appears, read: LPV/r with 3-day artesunate-mefloquine (Period 3).
Where [8] appears, read: both sexes, human, oral, LPV/r 400/100 mg twice daily alone (Period 2), read-out: Cmax.
Setting [9] is: both sexes, human, oral, LPV/r 400/100 mg twice daily alone (Period 2).
[10] abbreviates: both sexes, human, oral, LPV/r with 3-day artesunate-mefloquine (Period 3), read-out: AUC0–12h.
Where [11] appears, read: both sexes, human, oral, LPV/r with 3-day artesunate-mefloquine (Period 3).
Where [12] appears, read: in the presence of artesunate-mefloquine vs LPV/r alone.
[13] abbreviates: with artesunate-mefloquine vs LPV/r alone.
Setting [14] is: 750 and 500 mg 24 h apart vs previous study in healthy Thai subjects, 750 and 500 mg 6 h apart (ref 47, 48).
Setting [15] is: both sexes, human, oral, 3-day artesunate-mefloquine alone (Period 1).
Setting [16] is: both sexes, human, oral, 3-day artesunate-mefloquine with LPV/r (Period 3).

On to `C[C@H]1[C@H](OC(=O)CCC(=O)O)O[C@@H]2O[C@@]3(C)CC[C@H]4[C@H](C)CC[C@@H]1[C@@]24OO3` [Artesunate, artesunate], for which the Tmax under setting [1] was found to be 1 h and the Tmax under setting [4] is 1 h. Further, the AUC(0-t) is, setting by setting: (both sexes, human, oral, 3-day artesunate-mefloquine alone (Period 1), read-out: AUC0–24h) 200 ng·h/mL; (both sexes, human, oral, 3-day artesunate-mefloquine with LPV/r (Period 3), read-out: AUC0–24h) 240 ng·h/mL. The Cmax reads like this: under setting [2], 140 ng/mL; under setting [3], 110 ng/mL. Besides, under “combination vs alone”, the “90 % CI of the GMR of AUC0−24h vs bioequivalent range of 0.8-1.25” value is given as “outside the acceptable bioequivalent range”. Also, the “increase in Cmax and systemic exposure” value under setting [5] is 45–80%. Moreover, the “inter-individual variability in AUC0−24h” value (in vivo) is reported as 54.4%.
As a reminder, the AUC(0-inf) is the area under the concentration-time curve extrapolated to infinity. For the compound `Cc1cccc(C)c1OCC(=O)N[C@@H](Cc1ccccc1)[C@@H](O)C[C@H](Cc1ccccc1)NC(=O)[C@H](C(C)C)N1CCCNC1=O` [Lopinavir, lopinavir], under setting [6], the “AUC0–12h” value is listed as 103.32 (82.62, 124.01) μg h/mL and the Tmax is on record as 4.0 (3.1, 4.8) h. In addition, the Cmax under setting [7] was 9.62 (7.99, 11.24) μg/mL. For the same compound, the Cmax under setting [8] turned out to be 12400 ng/mL. For the same compound, under setting [9], the AUC(0-inf) was determined as 229 µg·h/mL, the Vd/F worked out at 0.45 L/kg and the half-life is 588 min. Further, the AUC(0-t) under setting [10] came out at 90500 ng·h/mL. Further, under setting [11], the AUC(0-inf) was determined as 130 µg·h/mL, the Vd/F was 0.53 L/kg and the half-life was 396 min. Under “combination vs alone”, the “90 % CI of the GMR of Cmax vs bioequivalent range of 0.8-1.25” value (shortened to “90 % CI of the GMR of Cmax”) was “outside the acceptable bioequivalent range”. Under setting [12], the “decrease in Cmax” value is 22% and 22.1%; the “increase in CL/F” value is recorded as 75.4%. In addition, for the setting “in vivo”, the “extrapolated AUC from the last blood sampling time to infinity (AUCt−∞)” value (from here on “extrapolated AUC”) is reported as “less than 5%” and the “inter-individual variability of plasma concentrations” value is recorded as 50.6 to 127.6%. For the same compound, the “t1/2z GMR (90 % CI)” value under setting [13] is given as 0.71 (0.45, 1.13).
Regarding `OC(c1cc(C(F)(F)F)nc2c(C(F)(F)F)cccc12)C1CCCCN1` (centres unmarked) [Mefloquine, mefloquine], the CL/F (3-day artesunate-mefloquine alone (Period 1)) is reported as 1.08 (0.78, 1.37) L/h. The CL/F (3-day artesunate-mefloquine with LPV/r (Period 3)) is 1.67 (1.03, 2.30) L/h. For the same compound, under setting [14], the “lower CL/F relative to previous study” value is on record as 33.4% and the “smaller Vz/F relative to previous study” value turned out to be 40%. Besides, the Tmax under setting [1] is 33 h. Moreover, the AUC(0-t) (both sexes, human, oral, 3-day artesunate-mefloquine alone (Period 1), read-out: AUC0–48h) is 952000 ng·h/mL. In addition, under setting [15], the half-life was 20600 min, the AUC(0-inf) is 1160 µg·h/mL and the Vd/F was 9.24 L/kg. The AUC(0-t) (both sexes, human, oral, 3-day artesunate-mefloquine with LPV/r (Period 3), read-out: AUC0–48h) stood at 678000 ng·h/mL. Also, the Cmax under setting [2] was determined as 2340 ng/mL. Besides, under setting [16], the half-life was 20200 min, the AUC(0-inf) is 751 µg·h/mL and the Vd/F was found to be 12.8 L/kg. For the same compound, under setting [3], the Cmax was found to be 2900 ng/mL. Further, the Tmax under setting [4] amounted to 33 h. Further, where the note is “combination vs alone”, the “90 % CI of the GMR of AUC0−168h vs bioequivalent range of 0.8-1.25” value is given as “outside the acceptable bioequivalent range”, the “90 % CI of the GMR of AUC0−∞ vs bioequivalent range of 0.8-1.25” value is on record as “outside the acceptable bioequivalent range” and the “90 % CI of the GMR of Cmax” value is recorded as “outside the acceptable bioequivalent range”. For the same compound, under setting [5], the “decrease in AUC0−48h” value is reported as 28.7%, the “decrease in AUC0−168h” value was determined as 37.1%, the “decrease in AUC0−∞” value is 35.2% and the “decrease in Cmax” value stood at 19.3%. Also, under setting [5], the “increase in CL/F” value is 54.6%; the “increase in Vz/F” value is 37.9%; the “reduction in Cmax and systemic exposure” value is listed as 19–37%. Besides, for the setting “in vivo”, the “extrapolated AUC” value is “less than 10%” and the “inter-individual variability of plasma concentrations” value was 34.2 to 96.9%. Moreover, for the setting “with LPV/r vs alone”, the “t1/2z GMR (90 % CI)” value is recorded as 1.14 (0.90, 1.45).
In the case of `CC(C)c1nc(CN(C)C(=O)N[C@H](C(=O)N[C@@H](Cc2ccccc2)C[C@H](O)[C@H](Cc2ccccc2)NC(=O)OCc2cncs2)C(C)C)cs1` [Ritonavir, ritonavir], under setting [6], the “AUC0–12h” value is 8.11 (5.71, 10.50) μg h/mL; the Tmax is 4.0 (3.1, 4.8) h; the CL/F was 9.27 (4.74, 13.80) L/h. Also, under setting [7], the Tmax was 4.0 (3.1, 4.8) h and the CL/F is reported as 21.24 (8.71, 33.77) L/h. Further, the Cmax under setting [8] worked out at 1530 ng/mL. Besides, under setting [9], the AUC(0-inf) worked out at 10.8 µg·h/mL, the Vd/F was 0.97 L/kg and the half-life is 258 min. The AUC(0-t) under setting [10] turned out to be 4490 ng·h/mL. The Cmax (both sexes, human, oral, LPV/r with 3-day artesunate-mefloquine (Period 3), read-out: Cmax) amounted to 680 ng/mL. In addition, under setting [11], the AUC(0-inf) was determined as 4.71 µg·h/mL, the Vd/F was 1.75 L/kg and the half-life was 222 min. Also, under “combination vs alone”, the “90 % CI of the GMR of AUC0−12h vs bioequivalent range of 0.8-1.25” value is recorded as “outside the acceptable bioequivalent range”, the “90 % CI of the GMR of AUC0−∞ vs bioequivalent range of 0.8-1.25” value was “outside the acceptable bioequivalent range” and the “90 % CI of the GMR of Cmax” value is reported as “outside the acceptable bioequivalent range”. Besides, under setting [12], the “decrease in AUC0–12h” value stood at 44.6%, the “decrease in AUC0−∞” value is 56.3%, the “decrease in Cmax” value was determined as 54.9% and the “increase in CL/F” value came out at 129.1%. Moreover, under setting [12], the “increase in Vz/F” value was found to be 80.4%. For the same compound, under “in vivo”, the “extrapolated AUC” value is listed as “less than 5%” and the “inter-individual variability of plasma concentrations” value was in the range of 21.3 to 62.9%. For the same compound, under setting [13], the “t1/2z GMR (90 % CI)” value is 0.87 (0.68, 1.11).

The record behind these values is paper PMC4600319 (Malaria Journal, 2015).
